Laboratory results taken from patent US20240285727A1, “NOVEL THERAPEUTIC PEPTIDES FOR NEURODEGENERATION” (UNIVERSITY OF SOUTHERN CALIFORNIA, priority 2021, published 2024).
Ends that are not written are not given here.

Columns and labels:
SHSY5Y = assay: Analogue screening assay, measured by MTT; type: cell-based; settings: as a percentage compared to SHMOOSE (SHMOOSE activity as 100%)
Description: FIG. 10 depicts an analogue screening assay, measured by MTT. Top: each bar represents a fragment (25-amino acid in length) of SHMOOSE. Bottom: each bar represents a phosphomimetic fragment (25-amino acid in length) of SHMOOSE. Cell model is SHSY5Y. The Inventors made 103 analogues/derivatives (see Table 1).
The Inventors made 103 analogues (Table 1). Referring to FIG. 10, in the top figure, each bar represents a 25-amino acid fragment of the SHMOOSE peptide. […] The sequence length of the analogue is 14 amino acids and 3 different analysis windows of the analogue, each having 11 amino acids, were characterized. […]

[1] = tested on: C57BL/6J mice fed a high fat diet; assay: SHMOOSE in vivo: daily IP injections to mice fed a high fat diet, two weeks; set-up: species or system mouse
Description: The inventors also injected SHMOOSE intraperitoneally (IP) to 12-week-old C57BL/6J mice fed a high fat diet (i.e., a mild metabolic perturbation). At the conclusion of the two-week study, the inventors harvested brain and liver for RNA-Seq. As the inventors observed for SHMOOSE.D47N carriers and in in vitro experiments, 367 differentially expressed genes under a p adjusted value of 0.05 enriched mitochondrial and ribosomal terms in the liver (FIG. 3C). That is, liver expression differences were observed after SHMOOSE IP injections. Brain hypothalamus expression differences were also observed after SHMOOSE IP injections. Further, cortical expression differences were observed after SHMOOSE IP injections. However, while the inventors observed global gene expression changes as illustrated by PCA in the mouse cortex and hypothalamus, most enriched terms included central nervous system-related terms, not ribosomes nor mitochondrial specifics (FIG. 17). Furthermore, brain hippocampus expression differences were observed after SHMOOSE IP injections.
To examine the transcriptomes of mice treated with SHMOOSE, 12-week-old male […] mice were obtained from The Jackson Laboratory. Mice were fed a high fat diet for 10 days (60% total calories) prior to initiation of SHMOOSE daily IP injections (2.5 mg/kg). No more than 60 ul of volume were injected IP. […]

[2] = SHMOOSE pharmacokinetics after intraperitoneal injection; type: in vivo, mouse; settings: IP injected mice
Protocol: SHMOOSE pharmacokinetics was studied, where 2.5 mg SHMOOSE/kg in 25-week old C57/BI6 mice were intraperitoneally injected.

ATP5A1 = ATP5A1 (UniProt P25705 44-553, limits assumed); assay: binding of SHMOOSE to ATP5 subunits (FIG. 9C/9D); method not described
[3] = molecular target: the molecule itself; assay: Western blot of subcellular fractions of SHMOOSE-treated SH-SY5Y cells (FIG. 4A)
Protocol: Cytosolic, nuclear, and mitochondrial fractions were prepared from cultured SH-SY5Y cells. To extract nuclei, cells were washed in ice-cold DPBS and resuspended in fractionation buffer containing 10 mM HEPES pH 7.6, 3 mM MgCl2, 10 mM KCl, 5% (v/v) glycerol, 1% Triton-X100, and protease/phosphatase inhibitors for 15 minutes, followed by centrifugation for 5 minutes at 250×g and 4° C. The resulting supernatant was further centrifuged once more at 18,000×g for 10 minutes at 4° C. to obtain a relatively pure cytoplasmic fraction. The original pellet prior to the 18,000×g centrifugation was washed in 10 mM HEPES pH 7.6, 1.5 mM MgCl2, 10 mM KCl, and protease/phosphatase inhibitors and centrifuged at 250×g and 4° C. The washed pellet was then resuspended in nuclear extraction buffer containing 20 mM HEPES pH 7.6, 1.5 mM MgCl2, 420 mM NaCl, 25% (v/v) glycerol, 0.2 mM EDTA, and protease/phosphatase inhibitors, followed by three sonication periods of 5 seconds (separated by 10 seconds) with 30% amplitude on ice. The sonicated pellet was centrifuged at 18,000×g for 10 minutes at 4° C. to obtain a relatively pure nuclear lysate. To extract mitochondria, cells were washed in ice-cold DPBS and resuspended in 2 ml hypotonic buffer containing 10 mM NaCl, 1.5 mM MgCl2, and 10 mM Tris-HCl pH 7.5 for 7.5 minutes. […]

Sequence of ATP5A1 (P25705 44-553 limits assumed): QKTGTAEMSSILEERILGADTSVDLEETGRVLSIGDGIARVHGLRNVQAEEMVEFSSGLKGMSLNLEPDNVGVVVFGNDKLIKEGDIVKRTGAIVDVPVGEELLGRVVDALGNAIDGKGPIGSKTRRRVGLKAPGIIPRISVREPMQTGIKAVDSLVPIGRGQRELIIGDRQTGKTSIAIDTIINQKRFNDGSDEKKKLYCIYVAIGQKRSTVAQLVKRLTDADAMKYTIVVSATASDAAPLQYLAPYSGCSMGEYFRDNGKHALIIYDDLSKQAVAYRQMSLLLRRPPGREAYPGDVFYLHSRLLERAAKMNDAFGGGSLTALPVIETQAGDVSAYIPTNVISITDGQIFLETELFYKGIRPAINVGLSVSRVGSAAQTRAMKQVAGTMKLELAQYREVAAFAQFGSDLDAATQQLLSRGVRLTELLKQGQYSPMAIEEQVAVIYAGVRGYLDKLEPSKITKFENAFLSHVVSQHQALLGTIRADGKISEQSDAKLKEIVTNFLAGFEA

| Molecule | % Efficacy (SHSY5Y) | other results |
| --- | --- | --- |
| 81 (GPKNFGADPNKDNNHAHDDNHPNPN) [compound 81] | −172.67% |  |
| 82 (PKNFGADPNKDNNHAHDDNHPNPNF) [compound 82] | −146.18% |  |
| 84 (NFGADPNKDNNHAHDDNHPNPNFPN) [compound 84] | −84.90% |  |
| 85 (FGADPNKDNNHAHDDNHPNPNFPND) [compound 85] | −476.83% |  |
| 86 (GADPNKDNNHAHDDNHPNPNFPNDP) [compound 86] | −62.75% |  |
| 88 (DPNKDNNHAHDDNHPNPNFPNDPHP) [compound 88] | −84.19% |  |
| 90 (NKDNNHAHDDNHPNPNFPNDPHPDH) [compound 90] | −226.81% |  |
| 91 (KDNNHAHDDNHPNPNFPNDPHPDHP) [compound 91] | −104.32% |  |
| 92 (DNNHAHDDNHPNPNFPNDPHPDHPR) [compound 92] | −85.47% |  |
| 97 (MPPCITTWLSQLLKDNSYPLVLGPKNFGATPNKSNNHAHYYNHPNPDFPNSPHPYHPR) [compound 97] | −1.709% |  |
| 98 (MPPCITTWISQLLKDNSYPLVLGPKNFGATPNKSNNHAHYYNHPNPDFPNSPHPYHPR) [compound 98] | 1.709% |  |
| 99 (MPPCITTWISQILKDNSYPLVLGPKNFGATPNKSNNHAHYYNHPNPDFPNSPHPYHPR) [compound 99] | −7.692% |  |
| 100 (MPPCITTWISQIIKDNSYPLVLGPKNFGATPNKSNNHAHYYNHPNPDFPNSPHPYHPR) [compound 100] | 4.274% |  |
| 101 (MPPCLTTWISQIIKDNSYPLVLGPKNFGATPNKSNNHAHYYNHPNPDFPNSPHPYHPR) [compound 101] | −10.26% |  |
| 102 (MPPCLTTWLSQIIKDNSYPLVLGPKNFGATPNKSNNHAHYYNHPNPDFPNSPHPYHPR) [compound 102] | −25.64% |  |
| 103 (MPPCLTTWLSQLIKDNSYPLVLGPKNFGATPNKSNNHAHYYNHPNPDFPNSPHPYHPR) [compound 103] | 86.32% |  |
| 104 (MPSCLTTWLSQLLKDNSYPLVLGPKNFGATPNKSNNHAHYYNHPNPDFPNSPHPYHPR) [compound 104] | 82.05% |  |
| 105 (MPSCLTTWLSSLLKDNSYPLVLGPKNFGATPNKSNNHAHYYNHPNPDFPNSPHPYHPR) [compound 105] | 44.44% |  |
| 106 (MPSCLTTWLSSLLSDNSYPLVLGPKNFGATPNKSNNHAHYYNHPNPDFPNSPHPYHPR) [compound 106] | −14.53% |  |
| 107 (MPSCLTTWISSIISDNSYPLVLGPKNFGATPNKSNNHAHYYNHPNPDFPNSPHPYHPR) [compound 107] | 134.2% |  |
| MPPCLTTWLSQLLKDNSYPLVLGPKNFGATPNKSNNHAHYYNHPNPDFPNSPHPYHPR [SHMOOSE] |  | toxic effects and behavior changes [1]: did not display toxic effects nor behavior changes; entry into circulation [2]: goes into the blood stream; half-life [2]: strong half-life |
| SHMOOSE (Small Human Mitochondrial Open reading frame Over the SErine-tRNA) peptide (Endogenous SHMOOSE in Western blots is treated as the same molecule; also called wild type SHMOOSE; synthetic SHMOOSE) peptide: MPPCLTTWLSQLLKDNSYPLVLGPKNFGATPNKSNNHAHYYNHPNPDFPNSPHPYHPR |  | binding result (ATP5A1): no binding; binding result [3]: binds |
